This test has as its system Influenza A virus. The test can be described thus: Antiviral activity against influenza A virus H1N1 infected in MDCK cells assessed as inhibition of virus-induced cytopathic effect after 48 hrs by crystal violet staining assay. The class given is functional, organism-based. In general terms: Protection from cytopathic effect is a common read-out in antiviral testing.

The term IC50 denotes the midpoint of a concentration-inhibition curve.

In the case of `CC(C)=C1NC(=O)/C(=C(N)\C=C\C[C@H](C)O)C1=O`, the IC50 came to 276 µM.

Take `NC(=O)c1ncn([C@@H]2O[C@H](CO)[C@@H](O)[C@H]2O)n1` [RIBAVIRIN]: the IC50 is 131 µM.

For the origin of these results see ChEMBL document CHEMBL3108766, “Cladosins A-E, hybrid polyketides from a deep-sea-derived fungus, Cladosporium sphaerospermum” (J Nat Prod, 2014).
